Molecular target: T1, human DGAT1 (Homo sapiens, UniProt O75907)
T1 sequence (O75907 1-488): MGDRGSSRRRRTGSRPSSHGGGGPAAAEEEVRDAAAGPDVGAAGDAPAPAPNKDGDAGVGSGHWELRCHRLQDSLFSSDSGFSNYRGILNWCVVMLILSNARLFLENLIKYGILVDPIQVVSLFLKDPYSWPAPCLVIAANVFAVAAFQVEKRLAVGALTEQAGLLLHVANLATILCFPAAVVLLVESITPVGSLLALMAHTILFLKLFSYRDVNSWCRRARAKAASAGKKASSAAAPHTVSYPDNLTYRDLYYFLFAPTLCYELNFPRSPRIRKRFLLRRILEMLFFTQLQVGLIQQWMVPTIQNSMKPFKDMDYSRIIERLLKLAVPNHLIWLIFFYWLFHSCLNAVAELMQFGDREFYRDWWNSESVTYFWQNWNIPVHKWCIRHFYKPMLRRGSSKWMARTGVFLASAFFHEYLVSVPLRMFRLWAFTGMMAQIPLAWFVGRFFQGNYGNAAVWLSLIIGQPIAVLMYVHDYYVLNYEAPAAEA
Assay: DGAT1 CPM Assay
Type: biochemical
Settings: human DGAT1, CPM fluorescence, 1 hour incubation at room temperature
Experimental: 20 uL of 90 uM CPM reagent in 90% ethanol was added after 1 hour incubation at room temperature.

Compound | IC50 [nM]
C[C@]1(C(=O)O)CC[C@H](OC2CCN(c3ccc(-c4nc5ccc(C(F)(F)F)cc5[nH]4)cn3)CC2)CC1 [Example 100] | 2
O=C(O)C[C@H]1CC[C@H](OC2CCN(c3ccc(-c4nc5cc(Cl)ccc5[nH]4)cn3)CC2)CC1 [Example 19] | 3
COc1ccc2nc(-c3ccc(N4CCC(OCC5(C(=O)O)CCC5)CC4)nc3)[nH]c2n1 [Example 44] | 89
O=C(O)C[C@H]1CC[C@@H](O[C@@H]2CC3C[C@H]2CN3c2ccc(-c3nc4cc(F)ccc4[nH]3)cn2)CC1 (single isomer, unassigned; enantiomer 2) [Example 29, [cis-4-({2-[5-(5-fluoro-1H-benzimidazol-2-yl)pyridin-2-yl]-2-azabicyclo[2.2.1]hept-5-yl}oxy)cyclohexyl]acetic acid enantiomer 2] | 5000
O=C(O)C[C@H]1CC[C@@H](OC2CCN(c3ccc(-c4nc5ccccc5[nH]4)cn3)CC2)CC1 [Example 8] | 15
O=C(O)C1(COC2CCN(c3ccc(-c4nc5ccccc5[nH]4)cn3)CC2)CCOCC1 [Example 49] | 220
Cc1ccc2[nH]c(-c3ccc(N4CCC(OC5CC(C(=O)O)(C(=O)O)C5)CC4)nc3)nc2n1 [Example 97] | 1000
O=C(O)C[C@H]1CC[C@@H](OC2CCN(c3ccc(-c4nc5nc(C(F)(F)F)ccc5[nH]4)cn3)CC2)CC1 [Example 27] | 13
O=C(O)C1(COC2CCN(c3ccc(-c4nc5ccc(F)cc5[nH]4)cn3)CC2)CCOCC1 [Example 46] | 97
Cc1ccc2[nH]c(-c3ccc(N4CCC(O[C@H]5CC[C@H](CC(=O)O)CC5)CC4)nc3)nc2n1 [Example 21] | 440
O=C1CN([C@H]2CC[C@H](OC3CCN(c4ccc(-c5nc6cc(C(F)(F)F)ccc6[nH]5)cn4)CC3)CC2)S(=O)(=O)N1 [Example 118] | 5
Cc1cc(N2CCC(O[C@H]3CC[C@@H](CC(=O)O)CC3)CC2)ncc1-c1nc2ccccc2[nH]1 [Example 13] | 147
O=C(O)C[C@H]1CC[C@@H](OC2CCN(c3ccc(-c4nc5ccc(F)cc5[nH]4)cn3)CC2)CC1 [Example 2, [cis-4-({1-[5-(6-fluoro-1H-benzimidazol-2-yl)pyridin-2-yl]piperidin-4-yl}oxy)cyclohexyl]acetic acid] | 8
O=C(O)C[C@H]1CC[C@H](OC2CCN(c3ccc(-c4nc5cc(F)c(F)c(Br)c5[nH]4)cn3)CC2)CC1 [Example 15] | 2
O=C(O)C[C@H]1CC[C@@H](OC2CCN(c3ccc(-c4nc5cc(F)c(F)cc5[nH]4)cn3)CC2)CC1 [Example 25] | 3
CCOC(=O)[C@H]1CC[C@H](OC2CCN(c3ccc(-c4nc5cc(F)ccc5[nH]4)cn3)CC2)CC1 [Example 73] | 71
O=C(O)C[C@H]1CC[C@@H](O[C@H]2C[C@H]3C[C@@H]2CN3c2ccc(-c3nc4cc(F)ccc4[nH]3)cn2)CC1 (single isomer, unassigned; enantiomer 1) [Example 28, [cis-4-({2-[5-(5-fluoro-1-benzimidazol-2-yl)pyridin-2-yl]-2-azabicyclo[2.2.1]hept-5-yl}oxy)cyclohexyl]acetic acid enantiomer 1] | 23
O=C(O)C1(COC2CCN(c3ccc(-c4nc5ccc(C(F)(F)F)cc5[nH]4)cn3)CC2)CCOCC1 [Example 45] | 7
O=C(NS(=O)(=O)c1ccc(F)cc1)[C@H]1CC[C@H](OC2CCN(c3ccc(-c4nc5cc(F)ccc5[nH]4)cn3)CC2)CC1 [Example 88] | 9
O=C(O)C1(COC2CCN(c3ccc(-c4nc5ccc(C(F)(F)F)cc5[nH]4)cn3)CC2)CCC1 [Example 37] | 2
C[C@]1(C(=O)O)CC[C@H](OC2CCN(c3ccc(-c4nc5ccc(F)cc5[nH]4)cn3)CC2)CC1 [Example 99] | 9
O=C(O)C[C@H]1CC[C@H](OC2CCN(c3ccc(-c4nc5cc(F)c(F)cc5[nH]4)cn3)CC2)CC1 [Example 16, [trans-4-({1-[5-(5,6-difluoro-1H-benzimidazol-2-yl)pyridin-2-yl]piperidin-4-yl}oxy)cyclohexyl]acetic acid] | 4
CCCCc1ccc2nc(-c3ccc(N4CCC(O[C@H]5CC[C@@H](CC(=O)O)CC5)CC4)nc3)[nH]c2c1 [Example 24, [cis-4-({1-[5-(6-butyl-1H-benzimidazol-2-yl)pyridin-2-yl]piperidin-4-yl}oxy)cyclohexyl]acetic acid] | 4
O=C1CN([C@H]2CC[C@H](OC3CCN(c4ccc(-c5nc6cc(F)c(F)cc6[nH]5)cn4)CC3)CC2)S(=O)(=O)N1 [Example 119] | 4
O=C(O)C[C@H]1CC[C@@H](OC2CCN(c3ccc(-c4nc5cc(F)ccc5[nH]4)cn3)C2)CC1 (single isomer, unassigned) [Example 139] | 12
C[C@]1(C(=O)O)CC[C@@H](OC2CCN(c3ccc(-c4nc5ccc(C(F)(F)F)cc5[nH]4)cn3)CC2)CC1 [Example 98, cis-1-methyl-4-[(1-{5-[6-(trifluoromethyl)-1H-benzimidazol-2-yl]pyridin-2-yl}piperidin-4-yl)oxy]cyclohexanecarboxylic acid] | 4

Second part, the compound after the results:

IC50 [nM] | Compound
4 | C[C@]1(C(=O)O)CC[C@H](OC2CCN(c3ccc(-c4nc5ccc(Cl)cc5[nH]4)cn3)CC2)CC1 [Example 102]
2 | O=C(O)c1ccc(OC2CCN(c3ccc(-c4nc5ccc(C(F)(F)F)cc5[nH]4)cn3)CC2)nc1 [Example 123]
100 | O=C(O)c1ncc(OC2CCN(c3ccc(-c4nc5cc(Cl)ccc5[nH]4)cn3)CC2)cn1 [Example 127, 5-(1-(5-(5-chloro-1H-benzo[d]imidazol-2-yl)pyridin-2-yl)piperidin-4-yloxy)pyrimidine-2-carboxylic acid]
15 | O=C(O)[C@H]1CC[C@H](OC2CCN(c3ccc(-c4nc5cc(F)ccc5[nH]4)cn3)CC2)CC1 [Example 74]
1200 | O=C(O)C1(COC2CCN(c3ccc(-c4nc5ccccc5[nH]4)cn3)CC2)CC1 [Example 41]
4 | O=C(O)c1cccc(COC2CCN(c3ccc(-c4nc5cc(C(F)(F)F)ccc5[nH]4)cn3)CC2)c1 [Example 117]
8 | O=C(O)C1(COC2CCN(c3ccc(-c4nc5ccc(C(F)(F)F)cc5[nH]4)cn3)CC2)CC1 [Example 38]
1 | O=C(O)Cc1ccc(OC2CCN(c3ccc(-c4nc5cc(Cl)ccc5[nH]4)cn3)CC2)cc1 [Example 129]
15 | O=C(O)c1cc(OC2CCN(c3ccc(-c4nc5cc(Cl)ccc5[nH]4)cn3)CC2)no1 [Example 130]
2 | O=C(O)[C@H]1CC[C@H](OC2CCN(c3ccc(-c4nc5cc(C(F)(F)F)ccc5[nH]4)cn3)CC2)CC1 [Example 69, trans-4-[(1-{5-[5-(trifluoromethyl)-1H-benzimidazol-2-yl]pyridin-2-yl}piperidin-4-yl)oxy]cyclohexanecarboxylic acid]
2 | O=C(O)c1cccc(OC2CCN(c3ccc(-c4nc5cc(Cl)ccc5[nH]4)cn3)CC2)c1 [Example 132]
21 | C[C@]1(C(=O)O)CC[C@@H](OC2CCN(c3ccc(-c4nc5cc(F)ccc5[nH]4)cn3)CC2)CC1 [Example 111]
324 | O=C(O)c1cncc(OC2CCN(c3ccc(-c4nc5cc(Cl)ccc5[nH]4)cn3)CC2)c1 [Example 128]
2 | CC(C)(COC1CCN(c2ccc(-c3nc4cc(Cl)c(Cl)cc4[nH]3)cn2)CC1)C(=O)O [Example 64]
3 | O=C(O)[C@H]1CC[C@H](OC2CCN(c3ccc(-c4nc5cc(Cl)ccc5[nH]4)cn3)CC2)CC1 [Example 71]
6 | O=C(O)C1(COC2CCN(c3ccc(-c4nc5ccc(Cl)cc5[nH]4)cn3)CC2)CCC1 [Example 43]
61 | O=C(O)C[C@H]1CC[C@H](OC2CCN(c3ccc(-c4nc5cc(Cl)cnc5[nH]4)cn3)CC2)CC1 [Example 20]
2 | O=C(O)c1ccc(OC2CCN(c3ccc(-c4nc5cc(Cl)ccc5[nH]4)cn3)CC2)cc1 [Example 131]
71 | O=C(O)C1(C(=O)O)CC(OC2CCN(c3ccc(-c4nc5cc(F)ccc5[nH]4)cn3)CC2)C1 [Example 93]
147 | O=C(O)C1(C(=O)O)CC(OC2CCN(c3ccc(-c4nc5ccccc5[nH]4)cn3)CC2)C1 [Example 92]
2 | O=C(O)[C@H]1CC[C@@H](OC2CCN(c3ccc(-c4nc5cc(Cl)ccc5[nH]4)cn3)CC2)CC1 [Example 76]
56 | O=C(O)CC1CC(OC2CCN(c3ccc(-c4nc5cc(F)ccc5[nH]4)cn3)CC2)C1 (stereo not shown) [Example 53]
277 | N#Cc1ccc2[nH]c(-c3ccc(N4CCC(OC5CC(C(=O)O)(C(=O)O)C5)CC4)nc3)nc2c1 [Example 96]
4 | O=C(NS(=O)(=O)c1ccc(Cl)cc1)[C@H]1CC[C@H](OC2CCN(c3ccc(-c4nc5cc(F)ccc5[nH]4)cn3)CC2)CC1 [Example 89]
10 | O=C(O)CC1CC(OC2CCN(c3ccc(-c4nc5ccc(C(F)(F)F)cc5[nH]4)cn3)CC2)C1 (stereo not shown) [Example 52]
520 | COC(=O)c1cccc(OC2CCN(c3ccc(-c4nc5cc(C(F)(F)F)ccc5[nH]4)cn3)CC2)c1 [Example 113, Methyl 3-[(1-{5-[5-(trifluoromethyl)-1H-benzimidazol-2-yl]pyridin-2-yl}piperidin-4-yl)oxy]benzoate]

— US20140088124A1, “IMIDAZOLE DERIVATIVES” (priority 2011, published 2014)
